Our source for the IC50 values is patent US20060276520A1 (priority 2002, published 2006).

Among the targets are MDM2/P53 (Homo sapiens, UniProt Q00987); ROC1/CUL1 (Homo sapiens, UniProt P62877+Q13616); ROC1/CUL2 (Homo sapiens, UniProt P62877+Q13617).
Holding throughout (assay): biochemical
The target of assay [1] is T1, APC2/APC11 (Homo sapiens, UniProt Q9NYG5+Q9UJX6).
The target of assay [2] is T1, APC2/APC11. The source holds these as a separate data set.
A further assay deals with T2, ROC2/CUL5 (Homo sapiens, UniProt Q93034+Q9UBF6).
T2 sequence (Q9UBF6 1-113): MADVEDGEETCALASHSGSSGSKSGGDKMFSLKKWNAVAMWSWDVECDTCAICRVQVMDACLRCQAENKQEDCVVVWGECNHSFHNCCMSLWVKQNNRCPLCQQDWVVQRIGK
T2 sequence (Q93034 1-780): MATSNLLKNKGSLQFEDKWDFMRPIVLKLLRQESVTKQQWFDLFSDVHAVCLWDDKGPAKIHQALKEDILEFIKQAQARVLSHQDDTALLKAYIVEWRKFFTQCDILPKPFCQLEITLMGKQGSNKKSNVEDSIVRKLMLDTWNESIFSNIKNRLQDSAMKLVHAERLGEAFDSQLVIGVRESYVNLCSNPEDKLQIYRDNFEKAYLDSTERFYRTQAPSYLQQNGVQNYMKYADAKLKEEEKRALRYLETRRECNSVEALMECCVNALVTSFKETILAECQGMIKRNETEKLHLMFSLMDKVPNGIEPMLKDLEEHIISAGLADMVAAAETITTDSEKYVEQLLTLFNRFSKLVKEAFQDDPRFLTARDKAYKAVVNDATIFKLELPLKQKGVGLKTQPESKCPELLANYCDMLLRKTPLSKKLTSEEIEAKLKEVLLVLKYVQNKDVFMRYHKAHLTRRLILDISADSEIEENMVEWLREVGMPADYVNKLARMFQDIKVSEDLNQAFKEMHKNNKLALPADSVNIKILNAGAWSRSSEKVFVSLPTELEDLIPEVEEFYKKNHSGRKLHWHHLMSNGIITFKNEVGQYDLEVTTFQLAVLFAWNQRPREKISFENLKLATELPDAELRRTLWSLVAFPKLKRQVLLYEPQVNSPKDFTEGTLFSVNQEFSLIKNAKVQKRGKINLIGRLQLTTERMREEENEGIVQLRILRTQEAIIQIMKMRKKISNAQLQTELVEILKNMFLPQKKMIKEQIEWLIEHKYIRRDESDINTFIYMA

Several values for one entry are separate records, joined by “and”; a condition that tells them apart may be missing. Equal entries are not always repeated. Where two headings read alike, the source gives them in different places.

T1 sequence (Q9UJX6 whole entry): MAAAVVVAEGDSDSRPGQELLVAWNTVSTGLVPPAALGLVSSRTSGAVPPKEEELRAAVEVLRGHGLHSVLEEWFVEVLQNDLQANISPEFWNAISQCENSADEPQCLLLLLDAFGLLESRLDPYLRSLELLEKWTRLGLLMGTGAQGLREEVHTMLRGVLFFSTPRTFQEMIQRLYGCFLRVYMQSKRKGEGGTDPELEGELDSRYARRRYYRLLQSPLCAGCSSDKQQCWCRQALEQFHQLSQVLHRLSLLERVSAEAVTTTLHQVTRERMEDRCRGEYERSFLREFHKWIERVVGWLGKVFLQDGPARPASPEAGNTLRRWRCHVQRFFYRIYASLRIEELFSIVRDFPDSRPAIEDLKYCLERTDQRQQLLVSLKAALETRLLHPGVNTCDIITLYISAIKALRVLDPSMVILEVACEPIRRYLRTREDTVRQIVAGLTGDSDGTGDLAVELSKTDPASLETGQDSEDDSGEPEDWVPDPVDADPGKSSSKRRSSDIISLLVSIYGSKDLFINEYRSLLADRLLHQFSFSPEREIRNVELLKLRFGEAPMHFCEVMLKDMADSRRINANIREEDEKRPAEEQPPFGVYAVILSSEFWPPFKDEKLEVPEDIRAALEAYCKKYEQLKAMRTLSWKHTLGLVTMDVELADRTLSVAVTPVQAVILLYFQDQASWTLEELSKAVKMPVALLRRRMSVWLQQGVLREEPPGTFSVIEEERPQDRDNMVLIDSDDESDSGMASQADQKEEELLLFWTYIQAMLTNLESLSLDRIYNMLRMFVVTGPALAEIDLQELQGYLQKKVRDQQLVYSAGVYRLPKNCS
T1 sequence (Q9NYG5 whole entry): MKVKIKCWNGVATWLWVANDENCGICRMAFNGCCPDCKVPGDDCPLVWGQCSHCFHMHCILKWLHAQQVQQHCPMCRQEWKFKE
Sequence of MDM2/P53 (Q00987 whole entry): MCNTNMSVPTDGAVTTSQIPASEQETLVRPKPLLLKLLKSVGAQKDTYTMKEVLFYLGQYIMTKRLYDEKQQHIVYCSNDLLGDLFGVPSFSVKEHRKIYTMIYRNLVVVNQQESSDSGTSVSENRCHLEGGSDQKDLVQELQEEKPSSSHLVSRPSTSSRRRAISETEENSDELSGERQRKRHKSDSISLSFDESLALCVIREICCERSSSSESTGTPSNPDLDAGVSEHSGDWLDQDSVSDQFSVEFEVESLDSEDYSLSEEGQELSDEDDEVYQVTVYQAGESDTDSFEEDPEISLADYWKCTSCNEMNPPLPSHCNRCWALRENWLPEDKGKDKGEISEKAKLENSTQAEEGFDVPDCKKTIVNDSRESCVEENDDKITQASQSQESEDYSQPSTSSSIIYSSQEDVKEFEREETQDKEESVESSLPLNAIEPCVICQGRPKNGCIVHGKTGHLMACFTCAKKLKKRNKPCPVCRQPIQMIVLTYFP
Sequence of ROC1/CUL2 (P62877 whole entry): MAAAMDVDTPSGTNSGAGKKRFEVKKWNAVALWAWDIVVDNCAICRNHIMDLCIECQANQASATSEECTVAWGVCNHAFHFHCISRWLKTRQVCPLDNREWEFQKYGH
Sequence of ROC1/CUL2 (Q13617 whole entry): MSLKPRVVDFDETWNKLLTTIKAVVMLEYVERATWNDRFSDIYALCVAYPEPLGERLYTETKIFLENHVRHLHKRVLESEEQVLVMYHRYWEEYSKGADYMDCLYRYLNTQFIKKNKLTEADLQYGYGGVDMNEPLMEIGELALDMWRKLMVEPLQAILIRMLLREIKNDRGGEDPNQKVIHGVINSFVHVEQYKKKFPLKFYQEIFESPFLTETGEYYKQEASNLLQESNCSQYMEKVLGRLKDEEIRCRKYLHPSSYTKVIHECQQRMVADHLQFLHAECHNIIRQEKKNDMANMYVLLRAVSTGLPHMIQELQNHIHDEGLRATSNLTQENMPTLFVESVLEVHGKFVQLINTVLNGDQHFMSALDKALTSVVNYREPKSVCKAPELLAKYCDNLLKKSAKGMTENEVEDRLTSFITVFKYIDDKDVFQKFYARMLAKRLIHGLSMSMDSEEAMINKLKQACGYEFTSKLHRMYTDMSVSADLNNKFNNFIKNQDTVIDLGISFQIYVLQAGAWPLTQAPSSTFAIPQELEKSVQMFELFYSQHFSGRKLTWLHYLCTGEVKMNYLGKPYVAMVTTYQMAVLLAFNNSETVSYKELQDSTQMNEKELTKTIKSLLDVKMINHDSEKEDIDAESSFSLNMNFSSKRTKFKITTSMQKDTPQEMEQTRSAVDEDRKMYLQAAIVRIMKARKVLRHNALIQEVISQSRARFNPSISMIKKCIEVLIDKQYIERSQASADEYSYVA
Sequence of ROC1/CUL1 (P62877 whole entry): as the sequence (P62877 whole entry) above
Sequence of ROC1/CUL1 (Q13616 whole entry): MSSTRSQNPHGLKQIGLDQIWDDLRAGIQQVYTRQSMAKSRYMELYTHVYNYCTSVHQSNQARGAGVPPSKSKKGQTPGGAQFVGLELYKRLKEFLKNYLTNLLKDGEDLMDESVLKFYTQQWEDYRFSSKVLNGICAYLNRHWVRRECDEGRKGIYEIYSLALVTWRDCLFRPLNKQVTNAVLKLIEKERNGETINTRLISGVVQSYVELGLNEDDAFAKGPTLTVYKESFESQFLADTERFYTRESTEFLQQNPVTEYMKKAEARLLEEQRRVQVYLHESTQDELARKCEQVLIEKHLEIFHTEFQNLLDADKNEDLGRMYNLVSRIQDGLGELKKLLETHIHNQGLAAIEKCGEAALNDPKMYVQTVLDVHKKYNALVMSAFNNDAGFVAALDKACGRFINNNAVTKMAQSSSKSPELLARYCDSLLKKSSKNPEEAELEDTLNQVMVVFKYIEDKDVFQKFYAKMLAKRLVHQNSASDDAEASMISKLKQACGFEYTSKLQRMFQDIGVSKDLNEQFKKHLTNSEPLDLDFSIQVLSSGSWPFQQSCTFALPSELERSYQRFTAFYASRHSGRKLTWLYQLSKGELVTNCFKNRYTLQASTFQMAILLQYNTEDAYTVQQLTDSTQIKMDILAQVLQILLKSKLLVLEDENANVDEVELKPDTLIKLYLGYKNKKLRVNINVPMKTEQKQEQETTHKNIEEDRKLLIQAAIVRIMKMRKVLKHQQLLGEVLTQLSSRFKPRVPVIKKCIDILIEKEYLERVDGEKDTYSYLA

A word on the IC50: it is the concentration at which inhibition is half-maximal. `O=C1/C(=C\c2ccc(-c3cccc(C(F)(F)F)c3)o2)SC(=S)N1Cc1ccco1` [Compound 55, (5E)-3-(2-furylmethyl)-2-thioxo-5-({5-[3-(trifluoromethyl)phenyl]-2-furyl}methylene)-1,3-thiazolidin-4-one]: the IC50 against APC2/APC11 [1] is 4000 nM and 10000 nM.
As to `COc1ccc(-c2ccc(/C=C3/SC(=S)NC3=O)o2)cc1Cl` [Compound 172, (5E)-5-{[5-(3-chloro-4-methoxyphenyl)-2-furyl]methylene}-2-thioxo-1,3-thiazolidin-4-one], the IC50 against APC2/APC11 [1] and against APC2/APC11 [2] was 2000 nM each time.
Turning to `COc1ccc(CN2C(=O)/C(=C/c3ccc(-c4ccccc4Cl)o3)SC2=S)cc1` [Compound 274, (5Z)-5-{[5-(2-chlorophenyl)-2-furyl]methylene}-3-(4-methoxybenzyl)-2-thioxo-11,3-thiazolidin-4-one], the IC50 was 1180 nM on MDM2/P53 and 110 nM against APC2/APC11 [2].
Turning to `O=C1/C(=C/c2ccc(-c3ccccc3Cl)o2)SC(=S)N1CCc1cccs1` [Compound 275, (5Z)-5-{[5-(2-chlorophenyl)-2-furyl]methylene}-3-[2-(2-thienyl)ethyl]-2-thioxo-1,3-thiazolidin-4-one], the values for the IC50 against MDM2/P53 and against APC2/APC11 [2] were 1160 nM and 320 nM, respectively.
Consider `O=C1/C(=C/c2ccc(-c3ccccc3Cl)o2)SC(=S)N1Cc1ccco1` [Compound 280, (5Z)-5-{[5-(2-chlorophenyl)-2-furyl]methylene}-3-(2-furylmethyl)-2-thioxo-1,3-thiazolidin-4-one], for which the half-inhibitory concentration (IC50) amounted to 250 nM at MDM2/P53 and 560 nM against APC2/APC11 [2].
Take `C=CCN1C(=O)/C(=C/c2ccc(-c3cccc(Cl)c3)o2)SC1=S` [Compound 284, (5Z)-3-allyl-5-{[5-(3-chlorophenyl)-2-furyl]methylene}-2-thioxo-1,3-thiazolidin-4-one]: the IC50 on ROC1/CUL1 turned out to be 800 nM; at ROC2/CUL5 it was 200 nM; at ROC1/CUL2 it was 800 nM.
Turning to `CC(C)(C)OC(=O)[C@H](Cc1ccccc1)NC(=O)CN1C(=O)/C(=C/c2ccc(-c3ccccc3Cl)o2)SC1=S` [Compound 301, tert-butyl N-[((5Z)-5-{[5-(2-chlorophenyl)-2-furyl]methylene}-4-oxo-2-thioxo-1,3-thiazolidin-3-yl)acetyl]phenylalaninate], the IC50 amounted to 930 nM at MDM2/P53 and 410 nM at APC2/APC11 [2].
`C=CCN1C(=O)C(Cc2ccc(-c3ccccc3Cl)o2)SC1=S` (centres unmarked) [Compound 304, 3-allyl-5-{[5-(2-chlorophenyl)-2-furyl]methyl}-2-thioxo-1,3-thiazolidin-4-one]: the IC50 came to 1000 nM against ROC1/CUL1, 800 nM at ROC2/CUL5 and 1000 nM against ROC1/CUL2.
